Results: patent publication US10799508B2, “Methods for treating cancer using HSP90 inhibitors” (AI Therapeutics, Inc., priority 2017, dated 2020)

Assays:
p-STAT1 in HCC-38 cells = experiment: Western blot of IFN-γ-induced pSTAT1; assay type: cell-based, human
Method: (§1) FIG. 5. HCC-38 cells treated with IFN-γ alone or co-treated with ruxolitinib (5000 nM) or MPC-3100 (10-5000 nM) were analyzed by Western blot to determine protein expression levels of HSP70 and pSTAT1. β-Actin was used as a loading control.
Since IFN-γ stimulates the expression of its target genes, such as PD-L1, which is mediated via JAK/STAT-1 signaling, the human HCC-38 cell line was used to probe the mechanism for IFN-γ-induced PD-L1 expression.

[1] = system: IFN-γ-induced PD-L1 expression in SK-MEL-28 cells; experiment: 10-point dose response validation of IFN-γ-induced PD-L1 signal; assay type: cell-based, human; details: SK-MEL-28, IFN-γ 50 ng/ml, 48 h, FIG. 2A-E
Method: FIG. 1A-D. Validation dose response curves of HSP90 inhibitors tested in the original screen. A) CNF2024; B) PF04928473; C) tanespimycin; D) HSP-990. SK-MEL-28 cells treated with IFN-γ and with the indicated HSP90 inhibitor at different concentrations. Cells were assayed for cell viability (square, % viability on left axis) and PD-L1 expression (circle, Z-score right axis) at 48 h after treatment of IFN-γ and/or HSP90 inhibitors. Quadruplicate wells were used for determination of cell viability and PD-L1 expression. Average values were plotted. […] Lysates were probed with anti PD-L1 antibody.
FIG. 2A-E. Dose response curves of 5 additional HSP90 inhibitors. A) STA-9090, B) CUDC-305, C) MPC-3100, D) XL-888 and E) TAS-116. SK-MEL-28 cells treated with IFN-γ (50 ng/ml) and with the indicated HSP90 inhibitor at different concentrations. Cells were assayed for cell viability (square, % viability on left axis) and PD-L1 expression (circle, Z-score right axis) at 48 h after treatment of IFN-γ and/or HSP inhibitors. Quadruplicate wells were used for determination of cell viability and PD-L1 expression. Average values were plotted.
After assessment for viability, plates were then prepared for immunostaining. Briefly, 16% paraformaldehyde (Electron Microscopy Sciences) was added to each well to a final concentration of 4%, for 10 minutes at room temperature. Following this time, the fix was aspirated and cells were washed 3 times with PBS. Cells were blocked using blocking solution (1% bovine serum albumin in PBS) for 30 minutes. After this time, the blocking reagent was aspirated and immunostaining reagent added. The immunostaining reagent consisted of a biotin conjugated-PD-L1 antibody (eBioscience) diluted in blocking buffer. Plates were sealed and kept at 4 C overnight. The following day, plates were washed 3 times with PBS followed by addition of a streptavidin-luciferase fusion protein (Invivogen) diluted in blocking buffer, for 1 h at room temperature. After this step, the plates were washed 3 times with PBS. After the final wash, PBS was aspirated and 30 uL of QUANTI-Luc™ (Invivogen) was added per well. Plates were immediately read on a plate reader (Victor 3V plate reader, 0.1s) and luciferase activity measured.
The raw PD-L1 intensity (the luciferase readout) corresponding to drug screen plates was normalized to blank plates containing only IFN-γ-treated wells, and the resulting ratio was used for the calculation of Z-scores.
These 4 HSP90 inhibitors were validated using the same experimental protocol employed above (using the SK-MEL-28 cells +/−IFN-γ in 384 well plates), with the only exception to the original assay design was that each drug was now tested in a 10-point dose response assay where the concentration of drug tested was 9.8-5000 nM (2 fold serial dilution). Cells were seeded and treated in quadruplicate. Viability was assessed after 48 h of treatment of four HSP 90 inhibitors and prior to harvesting the cells for testing PD-L1 signal, as described above.

[2] = system: PD-L1 cell surface expression in B16-F10 cells; experiment: Flow cytometry of IFN-γ-induced PD-L1 cell surface expression, B16-F10; details: B16-F10 (murine), IFN-γ plus MPC-3100, flow cytometry
Method: (§4) A) SK-MEL-28 and HCC-38 (both human lines) were treated with IFN-γ (50 ng/ml), MPC-3100 (500 nM or 1000 nM) or the combination for 48 h. B) EMT-6 and B16-F10 (both murine cell lines) were also treated with IFN-γ, MPC-3100 or the combination for 24 h. PD-L1 cell surface signals were analyzed by flow cytometry. Experiments were performed in duplicate and at least 2 independent times.
(§5) Two human cell lines were used (SK-MEL-28 and HCC-38 cells) and two murine cell lines were used (B16-F10, a melanoma cell line and EMT-6, a breast cancer cell line). All cells lines were treated with IFN-γ (50 ng/nl) and co-treated with MPC-3100 at the indicated concentrations for 48 h.

[3] = read-out: maximum concentration (Cmax, geometric mean) in plasma; patients dosed at the recommended phase 2 dose; cited from earlier work
[4] = system: IDO expression in HCC-38 cells; details: HCC-38, MPC-3100 1000 nM or 5000 nM, 48 h, Western blot
Method: Effect of HSP90 inhibitor MPC-3100 on IFN-γ-induced IDO protein levels. Human HCC-38 cells treated with IFN-γ alone or co-treated with ruxolitinib (5000 nM) or MPC-3100 (100, 1000 or 5000 nM) for 48 h. Lysates were analyzed by Western blot to determine protein expression levels of IDO.

[5] = system: HSP70 expression in HCC-38 cells; details: HCC-38 treated with MPC-3100, Western blot
Method: as §1

[6] = system: PD-L1 cell surface expression in SK-MEL-28 cells; experiment: Flow cytometry of IFN-γ-induced PD-L1 cell surface expression, SK-MEL-28; details: SK-MEL-28, IFN-γ, MPC-3100 500 nM or 1000 nM, 48 h
Method: as §4, §5

[7] = system: PD-L1 cell surface expression in HCC-38 cells; experiment: Flow cytometry of IFN-γ-induced PD-L1 cell surface expression, HCC-38; details: HCC-38, IFN-γ, MPC-3100 500 nM or 1000 nM, 48 h
Method: as §4, §5

[8] = system: IFN-γ-induced PD-L1 expression in HCC-38 cells; experiment: Western blot of IFN-γ-induced PD-L1 protein expression; assay type: cell-based, human; details: for IFN-γ-induced PD-L1 expression: IFN-γ 50 ng/ml, 48 h, Western blot
Method: FIG. 3. […] Human HCC-38 cells treated with IFN-γ alone or co-treated with ruxolitinib (5000 nM) or MPC-3100 (10-5000 nM) for 48 h were analyzed by Western blot analysis to determine protein expression levels of PD-L1. Ruxolitinib served as a positive control for inhibiting JAK2. β-Actin was used as a loading control.

[9] = system: PD-L1 expression in U87 cells
Method: (§2) FIG. 7. […] U87 cells were treated with MPC-3100 (500 and 1000 nM) for 24 h and analyzed by Western blotting with the indicated antibodies. β-Actin was used as a loading control.
(§3) Lysates were then prepared and queried for protein expression using western blot analysis.

pAkt in U87 cells = details: U87, MPC-3100 500 or 1000 nM, 24 h, Western blot
Method: as §2, §3

[10] = system: PD-L1 cell surface expression in EMT-6 cells; experiment: Flow cytometry of IFN-γ-induced PD-L1 cell surface expression, EMT-6; details: EMT-6 (murine), IFN-γ plus MPC-3100, flow cytometry
Method: as §4, §5

Structure (SMILES): C[C@H](O)C(=O)N1CCC(CCn2c(Sc3cc4c(cc3Br)OCO4)nc3c(N)ncnc32)CC1 [MPC-3100]
- concentrations blocking p-STAT1, fold lower than the Cmax at the recommended Phase 2 dose (p-STAT1 in HCC-38 cells; HCC-38): at least 10 fold
- IFN-γ-induced p-STAT1 (p-STAT1 in HCC-38 cells; HCC-38, MPC-3100 10-5000 nM, Western blot): blocks
- concentration required to inhibit IFN-γ-induced PD-L1 expression compared with concentration required to affect cell proliferation [1]: far lower
- IFN-γ-induced cell surface expression of PD-L1 [2]: effectively inhibited
- Cmax [3]: ~13 µM
- IFN-γ-induced IDO expression [4]: inhibited
- HSP70 expression [5]: increase
- IFN-γ-induced cell surface expression of PD-L1 [6]: effectively inhibited
- IFN-γ-induced cell surface expression of PD-L1 [7]: effectively inhibited
- IFN-γ-induced PD-L1 expression ([8]; HCC-38, MPC-3100 100 nM): reduced
- IFN-γ-induced PD-L1 expression ([8]; HCC-38, MPC-3100 1000 nM): completely abrogated
- concentrations eliciting immuno-modulatory activity toward PD-L1, fold lower than Cmax at RP2D ([8]; compared with plasma Cmax ~13 μM): at least 10 fold
- concentrations inhibiting PD-L1 expression, fold lower than the therapeutic dose ([9]; U87): ~10 fold
- constitutive PD-L1 expression ([9]; U87, MPC-3100 500 or 1000 nM, 24 h, Western blot): attenuation
- pAkt (pAkt in U87 cells): reduction
- IFN-γ-induced cell surface expression of PD-L1 [10]: effectively inhibited
